Experiment [1] has as its system human ES motor neurons carrying the ALS-causing SOD1^A4V mutation. Nature of the experiment: cells. Type of experiment: cell-based. The following applies: Homo sapiens, Neuron, 72 h, 72 h; for EC50 / Emax: CPA 33 μM; for EC50: read-out: EC50; for viability at 1 µM: CPA (33 μM) + compound (1 μM), read-out: Motor Neuron Survival, % untreated; for Emax: read-out: Emax (MN survival % untreated). The method, then: Next, survival assays were performed with all the analogs at once to generate a low-variability dataset. All compounds were evaluated at concentrations ranging from 0.1-3.0 μM (five-point dilution) in three technical replicates and two biological replicates.

Experiment [2] has as its target T1, MLK1/MAP3K9 (Homo sapiens, UniProt P80192).
T1 construct: purchased Reaction Biology Corp
As to the kind of experiment: Radiolabeled ATP kinase assay (Reaction Biology Corp.), MLK1. Type of experiment: biochemical. The note with it: [Cmpd] 0.1 μM, 10 μM ATP. The method, then:
(§1) Meanwhile, the same analogs were analyzed in a radiolabeled ATP assay (10 μM ATP; Reaction Biology Corp.) to compare the extent to which they could inhibit the activity of HGK, MLK1, or MLK3 in a cell-free environment (Table S3 and S4).

Experiment [3] concerns the target T2, MLK3/MAP3K11 (Homo sapiens, UniProt Q16584).
T2 construct: purchased Reaction Biology Corp
Nature of the experiment: Radiolabeled ATP kinase assay (Reaction Biology Corp.), MLK3. Type of experiment: biochemical. The following applies: [Cmpd] 0.1 μM; 10 μM ATP. The method, then: as §1

The target of experiment [4] is T3, panel of 60 human kinases (Homo sapiens, UniProt O15264).
T3 construct: purchased Reaction Biology Corp
T3 sequence (O15264 1-365): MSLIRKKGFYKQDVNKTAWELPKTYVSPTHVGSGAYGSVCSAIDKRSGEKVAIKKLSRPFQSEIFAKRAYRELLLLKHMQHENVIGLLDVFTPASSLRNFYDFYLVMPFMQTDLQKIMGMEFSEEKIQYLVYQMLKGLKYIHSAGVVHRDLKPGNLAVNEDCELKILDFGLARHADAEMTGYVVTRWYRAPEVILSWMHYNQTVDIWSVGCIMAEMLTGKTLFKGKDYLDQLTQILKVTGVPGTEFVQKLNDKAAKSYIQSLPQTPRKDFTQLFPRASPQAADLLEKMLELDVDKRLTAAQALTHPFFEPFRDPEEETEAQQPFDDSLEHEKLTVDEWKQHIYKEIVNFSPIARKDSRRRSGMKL
Nature of the experiment: Radiolabeled ATP kinase assay, panel of 60 kinases (Table S5). The class given is biochemical. The following applies: P38d/MAPK13; 0.1 μM; 10 μM ATP; read-out: % Enzyme Activity (relative to DSMO controls). The method, then:
(§2) To better understand the biologically relevant targets of compound 1 and its analogs, a second round of cell-free kinase assays was performed. In this expanded assay, we selected ten analogs ranging from moderately to very strongly protective in the CPA assay. These analogs were evaluated for their ability to inhibit a selection of 60 kinases at 0.1 μM and 0.5 μM. […] RNAseq data were used to confirm the expression of each kinase in ES MNs (see Example 12).
(§3) RNAseq data were used to confirm the expression of each kinase in ES motor neurons (see Example 12).

Experiment [5] addresses T4, panel of 60 human kinases (Homo sapiens, UniProt O60285).
T4 construct: purchased Reaction Biology Corp
T4 sequence (O60285 1-661): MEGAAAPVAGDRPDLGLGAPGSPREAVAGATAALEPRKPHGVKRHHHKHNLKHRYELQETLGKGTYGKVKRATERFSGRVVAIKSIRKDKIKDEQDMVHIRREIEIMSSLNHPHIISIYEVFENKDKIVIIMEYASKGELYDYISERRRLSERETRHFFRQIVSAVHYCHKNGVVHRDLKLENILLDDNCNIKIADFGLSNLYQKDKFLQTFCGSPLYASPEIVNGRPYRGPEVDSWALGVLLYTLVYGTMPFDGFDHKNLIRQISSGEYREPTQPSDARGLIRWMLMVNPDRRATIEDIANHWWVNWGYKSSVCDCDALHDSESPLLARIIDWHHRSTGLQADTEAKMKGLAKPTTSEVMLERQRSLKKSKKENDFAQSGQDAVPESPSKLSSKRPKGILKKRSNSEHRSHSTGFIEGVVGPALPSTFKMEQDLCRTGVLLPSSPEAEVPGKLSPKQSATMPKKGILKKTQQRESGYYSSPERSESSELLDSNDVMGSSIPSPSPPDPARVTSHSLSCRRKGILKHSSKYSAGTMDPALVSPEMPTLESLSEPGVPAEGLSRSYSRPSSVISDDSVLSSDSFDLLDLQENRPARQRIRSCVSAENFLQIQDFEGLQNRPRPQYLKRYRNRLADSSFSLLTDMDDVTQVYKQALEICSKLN
Described as above. The class given is biochemical. The note with it: ARK5/NUAK1; 0.1 μM; 10 μM ATP; read-out: % Enzyme Activity (relative to DSMO controls). The method, then:
as §2, §3

Experiment [6] addresses T5, panel of 60 human kinases (Homo sapiens, UniProt P21802).
T5 construct: purchased Reaction Biology Corp
The description is as above. Type of experiment: biochemical. The note with it: FGFR2; 0.1 μM; 10 μM ATP; read-out: % Enzyme Activity (relative to DSMO controls). The method, then:
as §2, §3

For experiment [7], the target named is T6, panel of 60 human kinases (Homo sapiens, UniProt P49759).
T6 construct: purchased Reaction Biology Corp
The experiment is described as above. The class given is biochemical. The following applies: CLK1; 0.1 μM; 10 μM ATP; read-out: % Enzyme Activity (relative to DSMO controls). The method, then: as §2, §3

The target of experiment [8] is T7, panel of 60 human kinases (Homo sapiens, UniProt Q00534).
T7 construct: purchased Reaction Biology Corp
Described as above. The note with it: 0.1 μM, 10 μM ATP, read-out: % Enzyme Activity (relative to DSMO controls). Type of experiment: biochemical. The method, then:
as §2, §3

Experiment [9] deals with T8, panel of 60 human kinases (Homo sapiens, UniProt Q13164).
T8 construct: purchased Reaction Biology Corp
T8 sequence (Q13164 whole entry): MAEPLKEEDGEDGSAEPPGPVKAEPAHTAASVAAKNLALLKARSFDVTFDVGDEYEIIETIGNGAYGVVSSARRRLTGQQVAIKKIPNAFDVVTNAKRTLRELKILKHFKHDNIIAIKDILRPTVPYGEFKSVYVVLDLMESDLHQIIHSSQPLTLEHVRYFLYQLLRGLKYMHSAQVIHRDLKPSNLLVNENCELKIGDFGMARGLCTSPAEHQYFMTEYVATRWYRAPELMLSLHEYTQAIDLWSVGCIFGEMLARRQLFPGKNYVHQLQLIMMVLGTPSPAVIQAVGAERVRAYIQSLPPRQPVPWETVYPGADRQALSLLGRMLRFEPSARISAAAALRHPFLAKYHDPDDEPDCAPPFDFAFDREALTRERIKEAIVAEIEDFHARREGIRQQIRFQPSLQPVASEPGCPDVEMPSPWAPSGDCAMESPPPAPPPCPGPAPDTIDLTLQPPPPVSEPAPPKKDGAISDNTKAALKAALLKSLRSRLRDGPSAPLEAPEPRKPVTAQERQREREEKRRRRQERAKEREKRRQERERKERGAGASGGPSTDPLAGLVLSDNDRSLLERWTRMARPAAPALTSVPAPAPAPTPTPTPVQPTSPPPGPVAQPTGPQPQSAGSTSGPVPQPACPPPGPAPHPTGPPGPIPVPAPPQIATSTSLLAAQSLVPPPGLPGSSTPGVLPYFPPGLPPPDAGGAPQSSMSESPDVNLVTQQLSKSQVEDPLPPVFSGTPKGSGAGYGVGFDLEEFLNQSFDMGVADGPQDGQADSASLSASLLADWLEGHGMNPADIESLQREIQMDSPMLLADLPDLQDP
The experiment is described as above. The class given is biochemical. The following applies: 0.1 μM, 10 μM ATP, read-out: % Enzyme Activity (relative to DSMO controls). The method, then: as §2, §3

Experiment [10] deals with T9, panel of 60 human kinases (Homo sapiens, UniProt Q92918).
T9 construct: purchased Reaction Biology Corp
The description is as above. Type of experiment: biochemical. The following applies: HPK1/MAP4K1; 0.1 μM; 10 μM ATP; read-out: % Enzyme Activity (relative to DSMO controls). The method, then: as §2, §3

In experiment [11] the target is T10, panel of 60 human kinases (Homo sapiens, UniProt Q9HAZ1).
T10 construct: purchased Reaction Biology Corp
T10 sequence (Q9HAZ1 whole entry): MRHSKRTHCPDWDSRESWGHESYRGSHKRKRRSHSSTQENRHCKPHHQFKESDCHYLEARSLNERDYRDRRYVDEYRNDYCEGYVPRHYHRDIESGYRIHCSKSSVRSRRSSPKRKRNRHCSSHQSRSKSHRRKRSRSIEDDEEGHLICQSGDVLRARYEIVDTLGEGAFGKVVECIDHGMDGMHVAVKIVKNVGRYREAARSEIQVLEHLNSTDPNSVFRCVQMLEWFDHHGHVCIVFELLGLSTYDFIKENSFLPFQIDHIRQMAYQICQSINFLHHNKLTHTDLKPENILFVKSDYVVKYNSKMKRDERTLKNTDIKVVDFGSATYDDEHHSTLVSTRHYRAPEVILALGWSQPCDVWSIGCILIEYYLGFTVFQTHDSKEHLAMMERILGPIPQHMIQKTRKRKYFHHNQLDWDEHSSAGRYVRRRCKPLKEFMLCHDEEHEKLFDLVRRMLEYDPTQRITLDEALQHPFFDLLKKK
Described as above. The class given is biochemical. The note with it: CLK4; 0.1 μM; 10 μM ATP; read-out: % Enzyme Activity (relative to DSMO controls). The method, then: as §2, §3

Experiment [12] concerns the target T11, panel of 60 human kinases (Homo sapiens, UniProt Q9UM73).
T11 construct: purchased Reaction Biology Corp
Described as above. The class given is biochemical. The following applies: ALK; 0.1 μM; 10 μM ATP; read-out: % Enzyme Activity (relative to DSMO controls). The method, then: as §2, §3

Experiment [13] addresses HGK/MAP4K4 (Homo sapiens, UniProt O95819). Nature of the experiment: Radiolabeled ATP kinase assay (Reaction Biology Corp.), HGK. Type of experiment: biochemical. Also on record: purchased Reaction Biology Corp. The following applies: 10 μM ATP, read-out: % Enzyme Activity (relative to DMSO controls), HGK/MAP4K4, Data 1; for remaining activity at 0.025 µM: [Cmpd] 0.025 μM; for remaining activity at 0.1 µM: [Cmpd] 0.1 μM. The method, then:
as §1

[14] abbreviates: read-out: % Enzyme Activity Remaining (relative to DMSO controls), MLK1/MAP3K9, Data 1.
Setting [15] is: read-out: % Enzyme Activity Remaining (relative to DMSO controls), MLK1/MAP3K9, Data 2.

Read-outs that look alike come from different tables or passages of the source.

T5 sequence (P21802 22-821): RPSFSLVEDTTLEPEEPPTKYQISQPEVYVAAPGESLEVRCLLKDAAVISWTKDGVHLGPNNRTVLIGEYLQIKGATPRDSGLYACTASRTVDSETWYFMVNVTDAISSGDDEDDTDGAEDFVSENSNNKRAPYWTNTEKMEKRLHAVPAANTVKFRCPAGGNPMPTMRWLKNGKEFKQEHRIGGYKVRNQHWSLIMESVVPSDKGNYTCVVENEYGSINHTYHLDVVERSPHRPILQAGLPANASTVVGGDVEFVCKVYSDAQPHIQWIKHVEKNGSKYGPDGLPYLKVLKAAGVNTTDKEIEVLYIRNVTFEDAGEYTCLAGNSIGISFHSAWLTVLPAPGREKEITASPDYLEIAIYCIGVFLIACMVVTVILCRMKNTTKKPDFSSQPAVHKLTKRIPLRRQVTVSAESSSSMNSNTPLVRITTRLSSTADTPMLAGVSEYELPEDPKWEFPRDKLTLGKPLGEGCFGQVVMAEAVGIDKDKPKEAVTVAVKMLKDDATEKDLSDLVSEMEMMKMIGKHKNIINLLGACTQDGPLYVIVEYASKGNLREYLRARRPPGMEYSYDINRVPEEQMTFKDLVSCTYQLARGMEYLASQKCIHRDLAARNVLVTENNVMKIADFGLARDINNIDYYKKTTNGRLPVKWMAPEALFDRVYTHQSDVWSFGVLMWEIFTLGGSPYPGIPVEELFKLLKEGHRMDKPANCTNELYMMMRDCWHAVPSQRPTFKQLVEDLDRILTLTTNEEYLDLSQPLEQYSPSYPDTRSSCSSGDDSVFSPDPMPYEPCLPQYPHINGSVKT
T11 sequence (Q9UM73 19-1620): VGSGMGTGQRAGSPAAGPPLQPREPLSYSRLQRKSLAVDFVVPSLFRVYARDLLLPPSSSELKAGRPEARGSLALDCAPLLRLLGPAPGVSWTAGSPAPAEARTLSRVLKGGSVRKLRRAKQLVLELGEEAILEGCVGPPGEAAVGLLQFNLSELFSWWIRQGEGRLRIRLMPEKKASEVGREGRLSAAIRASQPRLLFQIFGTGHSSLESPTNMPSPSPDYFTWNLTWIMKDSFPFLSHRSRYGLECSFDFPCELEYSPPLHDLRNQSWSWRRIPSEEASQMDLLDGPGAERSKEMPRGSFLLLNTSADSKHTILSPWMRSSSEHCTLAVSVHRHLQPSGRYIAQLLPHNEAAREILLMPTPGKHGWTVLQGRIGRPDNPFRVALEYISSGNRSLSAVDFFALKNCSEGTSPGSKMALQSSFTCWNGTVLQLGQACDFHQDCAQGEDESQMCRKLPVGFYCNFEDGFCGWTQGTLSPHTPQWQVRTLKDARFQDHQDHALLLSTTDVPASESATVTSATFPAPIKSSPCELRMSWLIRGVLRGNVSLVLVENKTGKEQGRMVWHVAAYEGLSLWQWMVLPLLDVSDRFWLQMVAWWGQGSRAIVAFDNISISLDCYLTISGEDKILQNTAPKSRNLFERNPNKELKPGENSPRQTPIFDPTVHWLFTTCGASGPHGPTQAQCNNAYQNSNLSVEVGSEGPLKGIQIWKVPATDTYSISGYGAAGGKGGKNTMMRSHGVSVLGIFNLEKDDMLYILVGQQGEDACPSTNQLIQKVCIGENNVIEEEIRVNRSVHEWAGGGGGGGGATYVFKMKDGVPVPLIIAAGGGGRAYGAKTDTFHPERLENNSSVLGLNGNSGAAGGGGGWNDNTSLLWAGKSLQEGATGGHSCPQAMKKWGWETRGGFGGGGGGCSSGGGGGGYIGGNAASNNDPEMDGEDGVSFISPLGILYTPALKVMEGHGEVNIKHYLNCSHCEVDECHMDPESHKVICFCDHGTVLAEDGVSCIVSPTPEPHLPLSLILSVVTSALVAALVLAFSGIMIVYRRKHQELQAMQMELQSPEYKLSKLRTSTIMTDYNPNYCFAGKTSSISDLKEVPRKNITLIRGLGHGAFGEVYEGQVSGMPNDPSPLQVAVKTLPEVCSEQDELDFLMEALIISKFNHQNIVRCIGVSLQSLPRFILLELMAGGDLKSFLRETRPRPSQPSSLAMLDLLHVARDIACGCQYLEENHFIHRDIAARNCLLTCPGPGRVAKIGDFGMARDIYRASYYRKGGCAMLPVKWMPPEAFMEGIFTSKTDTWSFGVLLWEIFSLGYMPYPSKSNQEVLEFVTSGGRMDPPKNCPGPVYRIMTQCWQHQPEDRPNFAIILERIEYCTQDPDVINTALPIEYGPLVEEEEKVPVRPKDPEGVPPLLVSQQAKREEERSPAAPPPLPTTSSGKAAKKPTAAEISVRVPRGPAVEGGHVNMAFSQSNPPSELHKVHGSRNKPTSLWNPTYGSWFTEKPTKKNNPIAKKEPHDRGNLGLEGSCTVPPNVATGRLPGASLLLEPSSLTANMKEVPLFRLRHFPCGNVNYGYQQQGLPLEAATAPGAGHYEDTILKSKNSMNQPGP
HGK/MAP4K4, sequence (O95819 whole entry): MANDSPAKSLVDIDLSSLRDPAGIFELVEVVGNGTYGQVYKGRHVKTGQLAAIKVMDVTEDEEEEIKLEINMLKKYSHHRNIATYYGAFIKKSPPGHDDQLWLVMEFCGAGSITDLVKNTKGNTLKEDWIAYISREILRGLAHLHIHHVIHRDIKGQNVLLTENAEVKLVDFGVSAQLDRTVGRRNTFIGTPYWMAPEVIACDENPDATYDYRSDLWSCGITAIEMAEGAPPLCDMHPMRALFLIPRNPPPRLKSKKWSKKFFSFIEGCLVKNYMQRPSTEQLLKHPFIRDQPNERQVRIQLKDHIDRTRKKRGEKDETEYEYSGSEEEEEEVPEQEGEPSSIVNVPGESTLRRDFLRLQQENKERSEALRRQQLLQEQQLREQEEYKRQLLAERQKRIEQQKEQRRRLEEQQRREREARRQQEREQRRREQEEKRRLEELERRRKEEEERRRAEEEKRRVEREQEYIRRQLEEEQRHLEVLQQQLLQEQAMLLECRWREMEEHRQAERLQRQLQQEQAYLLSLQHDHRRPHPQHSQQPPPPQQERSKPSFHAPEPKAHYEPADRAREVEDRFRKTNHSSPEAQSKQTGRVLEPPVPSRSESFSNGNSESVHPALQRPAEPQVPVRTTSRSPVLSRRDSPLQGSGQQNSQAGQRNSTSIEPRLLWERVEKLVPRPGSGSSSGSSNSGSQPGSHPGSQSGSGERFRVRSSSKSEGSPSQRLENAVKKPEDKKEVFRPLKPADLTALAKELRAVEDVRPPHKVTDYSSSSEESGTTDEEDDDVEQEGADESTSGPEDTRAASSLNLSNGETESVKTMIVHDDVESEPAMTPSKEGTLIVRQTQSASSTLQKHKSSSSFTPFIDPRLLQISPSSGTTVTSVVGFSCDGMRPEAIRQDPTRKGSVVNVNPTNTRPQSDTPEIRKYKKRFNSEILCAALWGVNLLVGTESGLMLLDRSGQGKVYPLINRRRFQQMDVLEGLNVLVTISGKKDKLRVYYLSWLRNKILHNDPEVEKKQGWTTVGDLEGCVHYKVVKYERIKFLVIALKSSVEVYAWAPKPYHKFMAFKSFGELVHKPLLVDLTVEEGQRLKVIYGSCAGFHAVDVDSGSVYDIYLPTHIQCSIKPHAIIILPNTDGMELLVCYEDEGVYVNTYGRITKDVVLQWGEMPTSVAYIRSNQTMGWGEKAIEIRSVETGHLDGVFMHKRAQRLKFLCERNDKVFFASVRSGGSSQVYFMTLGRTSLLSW

What is called EC50 is the midpoint of the concentration-response curve. For the compound `CN1CCN(Cc2ccc(-c3cnc4[nH]cc(-c5ccccc5Cl)c4c3)cc2)CC1` [Compound 7as, 3-(2-Chlorophenyl)-5-(4-((4-methylpiperazin-1-yl)methyl)phenyl)-1H-pyrrolo[2,3-b]pyridine], the EC50 in [1] was 329 nM. For the same compound, the viability at 1 µM in experiment [1] came out at 80.8%. In addition, the Emax in experiment [1] was found to be 80.8%. For the same compound, the remaining activity at 0.1 µM was 72.7% in experiment [2] (setting [14]); 73.3% in experiment [2] (setting [15]); 113% in [4]; 4.44% in experiment [5]; 41.1% in experiment [6]; 44.6% in experiment [7]. Moreover, the remaining activity at 0.1 µM in experiment [8] (CDK6/cyclin D1) was found to be 15.6%; in experiment [8] (CDK6/cyclin D3), 36.1%; in experiment [9] (ERK5/MAPK7 (CD)), 51.2%; in experiment [9] (ERK5/MAPK7), 107%; in experiment [10], 19.5%; in [11], 65.7%. Besides, the figures for the remaining activity at 0.1 µM in experiment [12] and in experiment [13] were 70.5% and 3.61%, respectively. Also, the “% Enzyme Activity Remaining (relative to DMSO controls), MLK3/MAP3K11, Data 1” value in experiment [3] was determined as 49.99%. Besides, the “% Enzyme Activity Remaining (relative to DMSO controls), MLK3/MAP3K11, Data 2” value in [3] was 51.55%. Moreover, the remaining activity at 0.025 µM in experiment [13] came to 17.6%.
In the case of `COc1ccccc1-c1c[nH]c2ncc(-c3ccc(CN4CCN(C)CC4)cc3)cc12` [Compound 7at, 3-(2-Methoxyphenyl)-5-(4-((4-methylpiperazin-1-yl)methyl)phenyl)-1H-pyrrolo[2,3-b]pyridine], the EC50 in experiment [1] was 297 nM. In addition, the viability at 1 µM in experiment [1] is 67.5%. The Emax in experiment [1] amounted to 85%. The remaining activity at 0.1 µM is 31.3% in [2] (setting [14]); 30.6% in [2] (setting [15]); 104% in experiment [4]; 22.9% in [5]; 83.4% in experiment [6]; 78.4% in [7]. For the same compound, the remaining activity at 0.1 µM in experiment [8] (CDK6/cyclin D1) was determined as 7.23%; in experiment [8] (CDK6/cyclin D3), 46%; in experiment [9] (ERK5/MAPK7 (CD)) it was 92.7%; in experiment [9] (ERK5/MAPK7) it was 108%; in [10] it was 55.6%; in experiment [11] it was 90.4%. Further, the figures for the remaining activity at 0.1 µM in [12] and in experiment [13] were 77.8% and 4.83%, respectively. Further, the “% Enzyme Activity Remaining (relative to DMSO controls), MLK3/MAP3K11, Data 1” value in [3] is recorded as 24.55%. For the same compound, the “% Enzyme Activity Remaining (relative to DMSO controls), MLK3/MAP3K11, Data 2” value in experiment [3] was 21.30%. In addition, in experiment [13], the remaining activity at 0.025 µM worked out at 29.3%.
Take `CN1CCN(Cc2ccc(-c3cnc4[nH]cc(-c5ccc6c(c5)OCCO6)c4c3)cc2)CC1` [Compound 7d, 3-(2,3-Dihydrobenzo[b][1,4]dioxin-6-yl)-5-(4-((4-methylpiperazin-1-yl)methyl)phenyl)-1H-pyrrolo[2,3-b]pyridine]: in experiment [1], the concentration for a half-maximal effect (EC50) amounted to 327 nM. Besides, in [1], the viability at 1 µM amounted to 72.9%. For the same compound, the Emax in experiment [1] was 72.9%. The remaining activity at 0.1 µM in experiment [2] (setting [14]) was 25.6%; in experiment [2] (setting [15]), 23.6%; in experiment [4], 98.6%; in experiment [5], 20.8%; in experiment [6], 70.4%; in [7], 1.66%. Moreover, the remaining activity at 0.1 µM turned out to be 15.1% in experiment [8] (CDK6/cyclin D1); 52.3% in experiment [8] (CDK6/cyclin D3); 87.5% in experiment [9] (ERK5/MAPK7 (CD)); 96.8% in experiment [9] (ERK5/MAPK7); 11.3% in [10]; 21.3% in [11]. For the same compound, the results for the remaining activity at 0.1 µM in experiment [12] and in [13] were 73.8% and 4.25%, respectively. The “% Enzyme Activity Remaining (relative to DMSO controls), MLK3/MAP3K11, Data 1” value in experiment [3] is recorded as 25.04%. The “% Enzyme Activity Remaining (relative to DMSO controls), MLK3/MAP3K11, Data 2” value in experiment [3] was found to be 18.84%. Moreover, the remaining activity at 0.025 µM in [13] amounted to 19.6%.
For the compound `CN1CCN(Cc2ccc(-c3cnc4[nH]cc(-c5ccncc5)c4c3)cc2)CC1` [Compound 7n, 5-(4-((4-Methylpiperazin-1-yl)methyl)phenyl)-3-(pyridin-4-yl)-1H-pyrrolo[2,3-b]pyridine], the EC50 in experiment [1] turned out to be 483 nM. In addition, in experiment [1], the viability at 1 µM turned out to be 36.3%. The Emax in [1] worked out at 36.3%. In addition, the remaining activity at 0.1 µM in experiment [2] (setting [14]) came to 88.9%; in [2] (setting [15]), 88.7%; in experiment [4], 105%; in [5], 39.3%; in [6], 94%; in experiment [7], 34.9%. Also, the remaining activity at 0.1 µM was found to be 23.4% in [8] (CDK6/cyclin D1); 51.8% in [8] (CDK6/cyclin D3); 98.9% in experiment [9] (ERK5/MAPK7 (CD)); 90.6% in experiment [9] (ERK5/MAPK7); 57.7% in experiment [10]; 72.2% in experiment [11]. Further, the remaining activity at 0.1 µM in experiment [12] worked out at 94.1%; in experiment [13], 29.9%. Besides, the “% Enzyme Activity Remaining (relative to DMSO controls), MLK3/MAP3K11, Data 1” value in [3] worked out at 91.26%. In [3], the “% Enzyme Activity Remaining (relative to DMSO controls), MLK3/MAP3K11, Data 2” value came out at 92.62%. The remaining activity at 0.025 µM in [13] turned out to be 65.7%.
